Results reported in US9381208B2, “Structure and use of 5′ phosphate oligonucleotides” (Rheinische Friedrich-Wilhelms-Universität, priority 2006, dated 2016).
{ppp} = triphosphate group

Test system: human primary monocytes
Test: IFN-α production in human primary monocytes transfected with RNA (ELISA)
Format: cell-based
Settings: for IFN-α induction (*100%) mean: monocytes from three donors, 36 hours after transfection, normalized to the mean induction level of all oligonucleotides (=100%); for IFN-α-inducing activity conferred by the 5′ 4-nucleotide sequence: adenosine-initiated in vitro transcribed RNA oligonucleotides, FIG. 13

| Substance | IFN-α induction (*100%) mean | IFN-α-inducing activity conferred by the 5′ 4-nucleotide sequence |
| --- | --- | --- |
| accuggggac acacacacac acacacacac (ACCUGGGGACACACACACACACACACACAC; RNA, 5' {ppp}, backbone not given here) [SEQ ID No. 124] | 0.76 *100% | – |
| acgaggggac acacacacac acacacacac (ACGAGGGGACACACACACACACACACACAC; RNA, 5' {ppp}, backbone not given here) [SEQ ID No. 151] | 1.14 *100% | highest IFN-α-inducing activity |
| acgcggggac acacacacac acacacacac (ACGCGGGGACACACACACACACACACACAC; RNA, 5' {ppp}, backbone not given here) [SEQ ID No. 147] | 1.08 *100% | highest IFN-α-inducing activity |
| acggggggac acacacacac acacacacac (ACGGGGGGACACACACACACACACACACAC; RNA, 5' {ppp}, backbone not given here) [SEQ ID No. 145] | 1.03 *100% | highest IFN-α-inducing activity |
| acguggggac acacacacac acacacacac (ACGUGGGGACACACACACACACACACACAC; RNA, 5' {ppp}, backbone not given here) [SEQ ID No. 125] | 0.77 *100% | – |
| acuaggggac acacacacac acacacacac (ACUAGGGGACACACACACACACACACACAC; RNA, 5' {ppp}, backbone not given here) [SEQ ID No. 117] | 0.62 *100% | – |
| acucggggac acacacacac acacacacac (ACUCGGGGACACACACACACACACACACAC; RNA, 5' {ppp}, backbone not given here) [SEQ ID No. 137] | 0.98 *100% | – |
| acugggggac acacacacac acacacacac (ACUGGGGGACACACACACACACACACACAC; RNA, 5' {ppp}, backbone not given here) [SEQ ID No. 152] | 1.14 *100% | highest IFN-α-inducing activity |
| acuuggggac acacacacac acacacacac (ACUUGGGGACACACACACACACACACACAC; RNA, 5' {ppp}, backbone not given here) [SEQ ID No. 118] | 0.66 *100% | – |
| agaaggggac acacacacac acacacacac (AGAAGGGGACACACACACACACACACACAC; RNA, 5' {ppp}, backbone not given here) [SEQ ID No. 165] | 1.29 *100% | highest IFN-α-inducing activity |
| agacggggac acacacacac acacacacac (AGACGGGGACACACACACACACACACACAC; RNA, 5' {ppp}, backbone not given here) [SEQ ID No. 116] | 0.62 *100% | – |
| agagggggac acacacacac acacacacac (AGAGGGGGACACACACACACACACACACAC; RNA, 5' {ppp}, backbone not given here) [SEQ ID No. 114] | 0.50 *100% | – |
| agauggggac acacacacac acacacacac (AGAUGGGGACACACACACACACACACACAC; RNA, 5' {ppp}, backbone not given here) [SEQ ID No. 113] | 0.48 *100% | – |
| agcaggggac acacacacac acacacacac (AGCAGGGGACACACACACACACACACACAC; RNA, 5' {ppp}, backbone not given here) [SEQ ID No. 164] | 1.29 *100% | highest IFN-α-inducing activity |
| agccggggac acacacacac acacacacac (AGCCGGGGACACACACACACACACACACAC; RNA, 5' {ppp}, backbone not given here) [SEQ ID No. 128] | 0.87 *100% | – |
| agcgggggac acacacacac acacacacac (AGCGGGGGACACACACACACACACACACAC; RNA, 5' {ppp}, backbone not given here) [SEQ ID No. 115] | 0.52 *100% | – |
| agcuggggac acacacacac acacacacac (AGCUGGGGACACACACACACACACACACAC; RNA, 5' {ppp}, backbone not given here) [SEQ ID No. 120] | 0.69 *100% | – |
| aggaggggac acacacacac acacacacac (AGGAGGGGACACACACACACACACACACAC; RNA, 5' {ppp}, backbone not given here) [SEQ ID No. 161] | 1.27 *100% | highest IFN-α-inducing activity |
| aggcggggac acacacacac acacacacac (AGGCGGGGACACACACACACACACACACAC; RNA, 5' {ppp}, backbone not given here) [SEQ ID No. 131] | 0.91 *100% | – |

| Substance | IFN-α induction (*100%) mean | IFN-α-inducing activity conferred by the 5′ 4-nucleotide sequence |
| --- | --- | --- |
| agggggggac acacacacac acacacacac (AGGGGGGGACACACACACACACACACACAC; RNA, 5' {ppp}, backbone not given here) [SEQ ID No. 111] | 0.22 *100% | – |
| agguggggac acacacacac acacacacac (AGGUGGGGACACACACACACACACACACAC; RNA, 5' {ppp}, backbone not given here) [SEQ ID No. 155] | 1.18 *100% | highest IFN-α-inducing activity |
| aguaggggac acacacacac acacacacac (AGUAGGGGACACACACACACACACACACAC; RNA, 5' {ppp}, backbone not given here) [SEQ ID No. 158] | 1.22 *100% | highest IFN-α-inducing activity |
| agucggggac acacacacac acacacacac (AGUCGGGGACACACACACACACACACACAC; RNA, 5' {ppp}, backbone not given here) [SEQ ID No. 140] | 1.00 *100% | highest IFN-α-inducing activity |
| agugggggac acacacacac acacacacac (AGUGGGGGACACACACACACACACACACAC; RNA, 5' {ppp}, backbone not given here) [SEQ ID No. 143] | 1.01 *100% | highest IFN-α-inducing activity |
| aguuggggac acacacacac acacacacac (AGUUGGGGACACACACACACACACACACAC; RNA, 5' {ppp}, backbone not given here) [SEQ ID No. 168] | 1.32 *100% | highest IFN-α-inducing activity |
| auaaggggac acacacacac acacacacac (AUAAGGGGACACACACACACACACACACAC; RNA, 5' {ppp}, backbone not given here) [SEQ ID No. 127] | 0.82 *100% | – |
| auacggggac acacacacac acacacacac (AUACGGGGACACACACACACACACACACAC; RNA, 5' {ppp}, backbone not given here) [SEQ ID No. 139] | 0.99 *100% | – |
| auagggggac acacacacac acacacacac (AUAGGGGGACACACACACACACACACACAC; RNA, 5' {ppp}, backbone not given here) [SEQ ID No. 123] | 0.76 *100% | – |
| auauggggac acacacacac acacacacac (AUAUGGGGACACACACACACACACACACAC; RNA, 5' {ppp}, backbone not given here) [SEQ ID No. 129] | 0.89 *100% | – |
| aucaggggac acacacacac acacacacac (AUCAGGGGACACACACACACACACACACAC; RNA, 5' {ppp}, backbone not given here) [SEQ ID No. 160] | 1.24 *100% | highest IFN-α-inducing activity |
| auccggggac acacacacac acacacacac (AUCCGGGGACACACACACACACACACACAC; RNA, 5' {ppp}, backbone not given here) [SEQ ID No. 141] | 1.01 *100% | highest IFN-α-inducing activity |
| aucgggggac acacacacac acacacacac (AUCGGGGGACACACACACACACACACACAC; RNA, 5' {ppp}, backbone not given here) [SEQ ID No. 162] | 1.28 *100% | highest IFN-α-inducing activity |
| aucuggggac acacacacac acacacacac (AUCUGGGGACACACACACACACACACACAC; RNA, 5' {ppp}, backbone not given here) [SEQ ID No. 133] | 0.94 *100% | – |
| augaggggac acacacacac acacacacac (AUGAGGGGACACACACACACACACACACAC; RNA, 5' {ppp}, backbone not given here) [SEQ ID No. 169] | 1.32 *100% | highest IFN-α-inducing activity |
| augcggggac acacacacac acacacacac (AUGCGGGGACACACACACACACACACACAC; RNA, 5' {ppp}, backbone not given here) [SEQ ID No. 159] | 1.23 *100% | highest IFN-α-inducing activity |
| auggggggac acacacacac acacacacac (AUGGGGGGACACACACACACACACACACAC; RNA, 5' {ppp}, backbone not given here) [SEQ ID No. 172] | 1.38 *100% | highest IFN-α-inducing activity |
| auguggggac acacacacac acacacacac (AUGUGGGGACACACACACACACACACACAC; RNA, 5' {ppp}, backbone not given here) [SEQ ID No. 153] | 1.15 *100% | highest IFN-α-inducing activity |
| auuaggggac acacacacac acacacacac (AUUAGGGGACACACACACACACACACACAC; RNA, 5' {ppp}, backbone not given here) [SEQ ID No. 171] | 1.36 *100% | highest IFN-α-inducing activity |
